Results on ten molecules are retold here after patent US10464922B2, “Metalloenzyme inhibitor compounds” (NQP 1598 LTD., priority 2015, dated 2019).

One test relates to C. albicans (ATCC 90028). Nature of the test: Minimum inhibitory concentration, in vitro broth microdilution assay (CLSI M27-A2). It counts as cell-based, Candida albicans. Particulars: ATCC 90028, about 50% growth reduction, 2 days at 36° C., range tested 8-0.0078 μg/mL, values given as ranges. How it is done:
The antifungal potency of the test compounds was measured using the in vitro broth microdilution assay under assay conditions described by the Clinical and Laboratory Standards Institute (CLSI M27-A2). The test compounds were dissolved in 100% DMSO, suspended completely by sonication or vortexing, diluted by 2-fold serial titrations in the same vehicle, for a total of 11 test concentrations. A 4 μL aliquot of each dilution was added to 196 μL of RPMI-1640+MOPS medium seeded with the C. albicans (ATCC 90028) suspension in wells of a 96 well plate (fungal cell count: 1×10^3 to 1×10^4 colony forming units per mL). The final volume was 200 μL in each well and the final DMSO concentration was 2 percent. The inoculated plates were incubated for 2 days at 36° C. Following incubation, the test plates were visually examined and wells were scored for growth to define the minimum inhibitory concentration. […] Each test substance was evaluated in duplicate. Vehicle-control and an active reference agent (e.g., posaconazole) were used as blank and positive controls, respectively.
For orientation: Broth dilution looks for growth in wells or tubes with falling amounts of substance.

The next test has as its system A. fumigatus. Nature of the test: A. fumigatus MIC at 100% growth inhibition (CLSI M38-A2). It counts as cell-based, Aspergillus fumigatus. Particulars: 100% growth inhibition, range tested 8-0.0078 μg/mL, values given as ranges. How it is done:
A. fumigatus MICs were determined at 100% growth inhibition following CLSI guidelines at a concentration range of 8-0.0078 μg/mL (CLSI M38-A2).

Converted amounts (≈) assume the structure as drawn.

Regarding `OC(c1ccc(N2CCN(c3ccc(-c4ccc(C(F)(F)[C@](O)(Cn5cnnn5)c5ccc(F)cc5F)nc4)cc3)CC2)cn1)C(F)(F)F` (single isomer, unassigned) [Example 6-Fr-II], the “Candida albicans MIC” value in the test on C. albicans (ATCC 90028) was at most 0.0078 to 0.010 µg/mL. Besides, the “Aspergillus fumigatus MIC” value with A. fumigatus fell in the range of 0.25 to 1.0 µg/mL.

A word on the MIC: it is the lowest concentration that inhibits growth of the organism. `OC(c1ccc(N2CCN(c3ccc(-c4ccc(C(F)(F)[C@](O)(Cn5cnnn5)c5ccc(F)cc5F)nc4)cc3)CC2)cn1)C(F)(F)F` (single isomer, unassigned) [Example 6-Fr-I]: the MIC is 0.01 to 0.1 µg/mL (≈ 0.0145 to 0.145 µM) with C. albicans (ATCC 90028) (Candida albicans, ATCC90028, 48 h, read-out: Candida albicans MIC) and 0.25 to 1 µg/mL (≈ 0.363 to 1.45 µM) in the test with A. fumigatus (Aspergillus fumigatus, read-out: Aspergillus fumigatus MIC).

Take `OC(CC(F)(F)F)c1ccc(N2CCN(c3ccc(-c4ccc(C(F)(F)[C@](O)(Cn5cnnn5)c5ccc(F)cc5F)nc4)cc3)CC2)cn1` (single isomer, unassigned) [Example 13-Fr-I]: the “Candida albicans MIC” value in the test on C. albicans (ATCC 90028) was at most 0.0078 to 0.010 µg/mL. Also, in the test with A. fumigatus, the “Aspergillus fumigatus MIC” value was 0.062 to 0.25 µg/mL.

Take `OC(c1cn(-c2ccc(N3CCN(c4ccc(-c5ccc(C(F)(F)C(O)(Cn6cnnn6)c6ccccc6F)nc5)cc4)CC3)cc2)nn1)C(F)(F)F` (single isomer, unassigned; (+)) [108(+), (+)-1,1-difluoro-2-(2-fluorophenyl)-3-(1H-tetrazol-1-yl)-1-(5-(4-(4-(4-(4-(2,2,2-trifluoro-1-hydroxyethyl)-1H-1,2,3-triazol-1-yl)phenyl)piperazin-1-yl)phenyl)pyridin-2-yl) propan-2-ol]: the “Candida albicans MIC” value in the test with C. albicans (ATCC 90028) was at most 0.0078 to 0.010 µg/mL. Further, the “Aspergillus fumigatus MIC” value in the test with A. fumigatus is 0.25 to 1.0 µg/mL.

Turning to `OC(c1cn(-c2ccc(N3CCN(c4ccc(-c5ccc(C(F)(F)C(O)(Cn6cnnn6)c6ccccc6F)nc5)cc4)CC3)cn2)nn1)C(F)(F)F` (single isomer, unassigned; (+)) [110(+), (+)-1,1-difluoro-2-(2-fluorophenyl)-3-(1H-tetrazol-1-yl)-1-(5-(4-(4-(6-(4-(2,2,2-trifluoro-1-hydroxyethyl)-1H-1,2,3-triazol-1-yl)pyridin-3-yl)piperazin-1-yl)phenyl)pyridin-2-yl) propan-2-ol], the “Candida albicans MIC” value in the test on C. albicans (ATCC 90028) is at most 0.0078 to 0.010 µg/mL. Besides, the “Aspergillus fumigatus MIC” value with A. fumigatus was 0.25 to 1.0 µg/mL.

On to `OC(CC(F)(F)F)c1ccc(N2CCN(c3ccc(-c4ccc(C(F)(F)[C@](O)(Cn5cncn5)c5ccc(F)cc5F)nc4)cc3)CC2)cn1` (single isomer, unassigned; (+)) [120(+)], for which the “Candida albicans MIC” value in the test on C. albicans (ATCC 90028) is at most 0.0078 to 0.010 µg/mL. Also, the “Aspergillus fumigatus MIC” value with A. fumigatus was 0.062 to 0.25 µg/mL.

For `OC(CC(F)(F)F)c1ccc(N2CCN(c3ccc(-c4ccc(C(F)(F)[C@](O)(Cn5cnnn5)c5ccc(F)cc5)nc4)cc3)CC2)cn1` (single isomer, unassigned; (+)) [121(+)], the “Candida albicans MIC” value in the test with C. albicans (ATCC 90028) is at most 0.0078 to 0.010 µg/mL. In addition, in the test with A. fumigatus, the “Aspergillus fumigatus MIC” value was in the range of 0.25 to 1.0 µg/mL.

`OC(CC(F)(F)F)c1ccc(N2CCN(c3ccc(-c4ccc(C(F)(F)[C@](O)(Cn5cnnn5)c5ccccc5F)nc4)cc3)CC2)cn1` (single isomer, unassigned; (+)) [122(+)]: the “Candida albicans MIC” value with C. albicans (ATCC 90028) was at most 0.0078 to 0.010 µg/mL. The “Aspergillus fumigatus MIC” value in the test with A. fumigatus is 0.25 to 1.0 µg/mL.

For `CC[C@@H]([C@H](C)O)n1ncn(-c2ccc(N3CCN(c4ccc(-c5ccc(C(F)(F)C(O)(Cn6cncn6)c6ccc(F)cc6F)nc5)cc4)CC3)cc2)c1=O` (single isomer, unassigned; (+)) [123(+)], the “Candida albicans MIC” value with C. albicans (ATCC 90028) was 0.010 to 0.10 µg/mL. In addition, the “Aspergillus fumigatus MIC” value in the test with A. fumigatus was 0.062 to 0.25 µg/mL.

`OC(c1cn(-c2ccc(N3CCN(c4ccc(-c5ccc(C(F)(F)C(O)(Cn6cnnn6)c6ccccc6F)nc5)cc4)CC3)cc2)nn1)C(F)(F)F` (single isomer, unassigned; (-)) [108(−)]: the “Candida albicans MIC” value in the test on C. albicans (ATCC 90028) was over 8 µg/mL. The “Aspergillus fumigatus MIC” value in the test with A. fumigatus was over 8 µg/mL.
